Legend:
[1] = Sensory evaluation of sweetness linger by a panel of experts; assay type: in vivo; set-up: key: 0: no sweetness linger; 1: very slight sweetness linger; 2: slight sweetness linger; 3: moderate sweetness linger; 4: moderately high sweetness linger; 5: high sweetness linger; conditions: scale 0-5
Experimental: Sensory evaluation of the samples prepared in Example Set G was carried out under the following protocol, similar to that described hereinabove. In this test protocol, none of the samples were swallowed. All samples were expectorated and the mouth was rinsed with water after the tasting. Immediately upon sensing maximal sweetness, the sample was expectorated, the mouth was rinsed with water and the rate of sweetness decay (“Sweetness Linger”) was measured, where attention was focused on the sweetness 3-4 min after the water rinse. After sample tasting was complete, a salty oyster cracker was chewed followed by a water rinse, and at least 5 minutes followed before tasting the next sample. The sweetness linger was rated by a panel of experts in the sensory evaluation of foods and beverages using the following scale: 0=no sweetness linger, 1=very slight sweetness linger, 2=slight sweetness linger, 3=moderate sweetness linger, 4=moderately high sweetness linger, 5=high sweetness linger.
The “Sweetness Linger” rating for sucrose observed by this protocol is defined as 0. The Sweetness Linger of a 500 ppm of REBA control sample is defined as 5. Experimental samples were tasted by the same protocol, always allowing sufficient time between samples to ensure re-equilibration of the sensory system. Re-tasting of control samples during the course of the experiment was allowed and encouraged. […]
Sweet taste improving compositions were combined with a REBA solution to determine their effect on sweetness linger, Screening of the initial sample, or further dilutions, allowed identification of concentrations which were just above-threshold, herein defined as “near-threshold concentrations.” The near-threshold additive concentrations, a 6- to 100-fold higher higher additive concentration (depending on the off-taste intensity), and a mid-level additive concentration (halfway between the near-threshold and higher additive concentration) were evaluated to determine the effect on sweetness linger of a REBA solution. […]

[2] = Rate of dissolution of rebaudioside A polymorph and amorphous forms in H2O at 25° C.; assay type: physicochemical
[3] = assay type: physicochemical
Experimental: A solution of rebaudioside A (>97% pure by HPLC ) was prepared in double distilled water (12.5 gm in 50 mL, 25% concentration) by stirring the mixture at 40° C. for 5 minutes. An amorphous form of rebaudioside A was formed by immediately using the clear solution for spray drying with the Lab-Plant spray drier SD-04 instrument (Lab-Plant Ltd., West Yorkshire, U.K.). The solution was fed through the feed pump into the nozzle atomizer which atomized it into a spray of droplets with the help of a constant flow of nitrogen/air. […] This dry powder (11-12 g, H2O 6.74%) was discharged continuously from the drying chamber and was collected in a bottle.

Rate of dissolution in H2O at 25° C. [2]	solubility in water at room temperature [3]	SMILES	sweetness linger ([1]; Example Set G: citric acid/potassium citrate composition equivalent to a diet lemon-lime beverage, 400 ppm REBA base, sweetness 3-4 min after water rinse)	sweetness linger ([1]; Example Set H: carbon-treated water with phosphoric acid (75%) to pH 2.4-2.5, 500 ppm REBA base)	Sweetness Linger rating ([1]; control ratings defined for the protocol)
		C=C1C[C@@]23CC[C@H]4[C@@](C)(CCC[C@@]4(C)C(=O)O[C@@H]4O[C@H](CO)[C@@H](O)[C@H](O)[C@H]4O)[C@@H]2CC[C@]1(O[C@@H]1O[C@H](CO)[C@@H](O)[C@H](O[C@@H]2O[C@H](CO)[C@@H](O)[C@H](O)[C@H]2O)[C@H]1O[C@@H]1O[C@H](CO)[C@@H](O)[C@H](O)[C@H]1O)C3 [REBA, rebaudioside A]	5	5	5
High (>35%/5 %/5 minutes	> 35.0%	C=C1C[C@@]23CC[C@H]4[C@@](C)(CCC[C@@]4(C)C(=O)O[C@@H]4O[C@H](CO)[C@@H](O)[C@H](O)[C@H]4O)[C@@H]2CC[C@]1(O[C@@H]1O[C@H](CO)[C@@H](O)[C@H](O[C@@H]2O[C@H](CO)[C@@H](O)[C@H](O)[C@H]2O)[C@H]1O[C@@H]1O[C@H](CO)[C@@H](O)[C@H](O)[C@H]1O)C3 [Form 4, rebaudioside A]			

— patent US8524304B2, “High-potency sweetener composition with probiotics/prebiotics and compositions sweetened therewith” (The Coca-Cola Company, priority 2005, dated 2013)
